SMILES strings stand for the structures.

Experimental findings from US10087172B2, “Compounds and their methods of use” (AGIOS PHARMACEUTICALS, INC, priority 2012, dated 2018) are described below.

This experiment addresses T1, glutaminase (GAC) (Homo sapiens, UniProt O94925).
T1 sequence (O94925 55-598 isoform O94925-3 limits assumed): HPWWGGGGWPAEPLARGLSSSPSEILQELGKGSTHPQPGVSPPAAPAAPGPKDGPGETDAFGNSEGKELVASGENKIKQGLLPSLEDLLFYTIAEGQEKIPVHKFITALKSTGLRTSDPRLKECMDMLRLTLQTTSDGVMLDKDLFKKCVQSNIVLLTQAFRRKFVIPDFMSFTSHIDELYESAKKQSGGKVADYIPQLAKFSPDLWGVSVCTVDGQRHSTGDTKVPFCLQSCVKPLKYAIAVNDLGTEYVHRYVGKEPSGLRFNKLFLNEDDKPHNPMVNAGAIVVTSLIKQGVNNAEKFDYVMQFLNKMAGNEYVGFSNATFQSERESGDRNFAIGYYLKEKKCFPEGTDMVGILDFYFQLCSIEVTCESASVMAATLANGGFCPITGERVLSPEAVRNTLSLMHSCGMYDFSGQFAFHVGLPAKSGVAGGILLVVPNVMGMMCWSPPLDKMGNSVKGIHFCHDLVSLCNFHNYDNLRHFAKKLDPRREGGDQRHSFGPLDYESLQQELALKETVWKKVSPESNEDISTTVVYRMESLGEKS
The experiment in a line: Glutaminase (GAC) coupled endpoint enzymatic assay (glutamate dehydrogenase/diaphorase/resazurin, Ex544/Em590). It is filed as biochemical. The conditions noted are these: inhibition of glutaminase, tested in an assay of Example A or Example B; class symbols A-E. The source says:
In certain embodiments, exemplary compounds of Formula I include the compounds described in Table 1 and in the Examples. A compound described herein may be tested for its ability to inhibit glutaminase, e.g., by an assay as described in the Examples. For simplicity, the inhibition activity of these compounds is represented as an IC50 tested in an assay of Example A or Example B in Table 1. […] “N/A” refers to compounds wherein the IC50 is unavailable.
In this example, the enzymatic activity of glutaminase is measured through a coupled endpoint assay. Glutamine and phosphate are supplied to GAC at a concentration equal to Km and AC50, respectively, and GAC concentration is adjusted to give a linear reaction for 60 minutes. The glutamate produced is converted to 2-OG by a kinetic excess of glutamate dehydrogenase. This second step is configured for 2× Km for NAD, since excess NAD is inhibitory. However, a kinetic excess of the third coupling enzyme, diaphorase, recycles NAD from NADH to keep the NAD concentration constant during the timecourse of the assay. Diaphorase, also supplied in kinetic excess, oxidizes NADH produced by GDH back to NAD with the concomitant reduction of rezasurin to the highly fluorescent resorufin. Resorufin in measured after the assay is stopped with SDS by Ex544/Em590. A reduction in the signal indicates inhibition of some component of the coupled enzyme system. Prospective hits are counterscreened against GDH/diaphorase alone to remove hits to the coupling enzyme system in a second assay.
2. Buffers 2× Buffer (300 mM NaCl, 100 mM HEPES pH 8.5, 0.1% BSA, 0.5 mM EDTA, 100 mM sodium phosphate pH 8.5) 5× Substrate Mix (1× Buffer final concentration, with 13 mM glutamine, 100 μM resazurin, 50 μg/ml diaphorase) 1.2× Enzyme Mix (1× Buffer final concentration, with 0.875 μg/ml GAC, 1.56 mM NAD, 6.25 units/ml GDH) Stop Mix (6% SDS in ddH2O) Reaction Procedure 1. Add 1 μl compound in 100% DMSO 2. Add 40 μl of Enzyme Mix and incubate for 60 minute at room temperature 3. Add 10 μl of Substrate Mix to start reaction 4. Stop reaction with 25 μl of 6% SDS and read Ex544 Em 590
`Cc1ccccc1CC(=O)Nc1nnc([C@H]2CCC[C@H](c3nnc(NC(=O)Cc4ccccc4C)s3)C2)s1` [Compound 83, N,N′-(5,5′-((1S,3S)-cyclohexane-1,3-diyl)bis(1,3,4-thiadiazole-5,2-diyl))bis(2-o-tolylacetamide)] showed an IC50 of 100 to 500 nM.
The same measure for `O=C(CN1CCCC1=O)Nc1nnc([C@H]2CCC[C@H](c3nnc(NC(=O)CN4CCCC4=O)s3)C2)s1` [Compound 85, N,N′-(5,5′-((1S,3S)-cyclohexane-1,3-diyl)bis(1,3,4-thiadiazole-5,2-diyl))bis(2-(2-oxopyrrolidin-1-yl)acetamide)]: 500 to 1000 nM; for `O=C(Cc1ccccc1F)Nc1nnc([C@H]2CCC[C@H](c3nnc(NC(=O)Cc4ccccc4F)s3)C2)s1` [Compound 87, N,N′-(5,5′-((1S,3S)-cyclohexane-1,3-diyl)bis(1,3,4-thiadiazole-5,2-diyl))bis(2-(2-fluorophenyl)acetamide)]: under 100 nM; for `O=C(Cc1ccc(F)cc1)Nc1nnc([C@H]2CCC[C@H](c3nnc(NC(=O)Cc4ccc(F)cc4)s3)C2)s1` [Compound 88, N,N′-(5,5′-((1S,3S)-cyclohexane-1,3-diyl)bis(1,3,4-thiadiazole-5,2-diyl))bis(2-(4-fluorophenyl)acetamide)]: 100 to 500 nM.
In the case of `O=C(Cc1c(F)cccc1F)Nc1nnc([C@H]2CCC[C@H](c3nnc(NC(=O)Cc4c(F)cccc4F)s3)C2)s1` [Compound 89], the half-inhibitory concentration (IC50) was in the range of 100 to 500 nM.
The same measure for `CC(C)Oc1cccc(CC(=O)Nc2nnc([C@H]3CCC[C@H](c4nnc(NC(=O)Cc5cccc(OC(C)C)c5)s4)C3)s2)c1` [Compound 91, N,N′-(5,5′-((1S,3S)-cyclohexane-1,3-diyl)bis(1,3,4-thiadiazole-5,2-diyl))bis(2-(3-isopropoxyphenyl)acetamide)]: 100 to 500 nM; for `CC(C)Oc1ccccc1CC(=O)Nc1nnc([C@H]2CCC[C@H](c3nnc(NC(=O)Cc4ccccc4OC(C)C)s3)C2)s1` [Compound 92, N,N′-(5,5′-((1S,3S)-cyclohexane-1,3-diyl)bis(1,3,4-thiadiazole-5,2-diyl))bis(2-(2-isopropoxyphenyl)acetamide)]: 100 to 500 nM; for `O=C(Cc1nccs1)Nc1nnc([C@H]2CCC[C@H](c3nnc(NC(=O)Cc4nccs4)s3)C2)s1` [Compound 100]: under 100 nM.
`CC(=O)Nc1cccc(CC(=O)Nc2nnc([C@H]3CCC[C@H](c4nnc(NC(=O)Cc5cccc(NC(C)=O)n5)s4)C3)s2)n1` [Compound 104, N,N′-(5,5′-((1S,3S)-cyclohexane-1,3-diyl)bis(1,3,4-thiadiazole-5,2-diyl))bis(2-(6-acetamidopyridin-2-yl)acetamide)] gave an IC50 of under 100 nM.
The result for `Cc1cccc(CC(=O)Nc2nnc([C@H]3CCC[C@H](c4nnc(NC(=O)Cc5cccc(C)c5)s4)C3)s2)c1` [Compound 111, N,N′-(5,5′-((1S,3S)-cyclohexane-1,3-diyl)bis(1,3,4-thiadiazole-5,2-diyl))bis(2-m-tolylacetamide)] reads 100 to 500 nM.
The same measure for `COc1cccc(CC(=O)Nc2nnc([C@H]3CCC[C@H](c4nnc(NC(=O)Cc5cccc(OC)c5OC)s4)C3)s2)c1OC` [Compound 112, N,N′-(5,5′-((1S,3S)-cyclohexane-1,3-diyl)bis(1,3,4-thiadiazole-5,2-diyl))bis(2-(2,3-dimethoxyphenyl)acetamide)]: under 100 nM; for `O=C(Cc1ccccn1)Nc1nnc([C@H]2CC[C@H](c3nnc(NC(=O)Cc4ccccn4)s3)C2)s1` [Compound 309]: under 100 nM; for `O=C(Cc1csc(N2CC(F)(F)C2)n1)Nc1nnc([C@H]2CCC[C@H](c3nnc(NC(=O)Cc4csc(N5CC(F)(F)C5)n4)s3)C2)s1` [Compound 336]: under 100 nM.
The compound `O=C(Cc1ccnc(N2CC(F)(F)C2)n1)Nc1nnc([C@H]2CCC[C@H](c3nnc(NC(=O)Cc4ccnc(N5CC(F)(F)C5)n4)s3)C2)s1` [Compound 346, N,N′-(5,5′-((1R,3R)-cyclohexane-1,3-diyl)bis(1,3,4-thiadiazole-5,2-diyl))bis(2-(2-(3,3-difluoroazetidin-1-yl)pyrimidin-4-yl)acetamide)] gave an IC50 of under 100 nM.
The same measure for `COc1ccc(CC(=O)Nc2nnc([C@H]3CC[C@H](c4nnc(NC(=O)Cc5ccc(OC)cn5)s4)C3)s2)nc1` [Compound 347, N,N′-(5,5′-((1S,3S)-cyclopentane-1,3-diyl)bis(1,3,4-thiadiazole-5,2-diyl))bis(2-(5-methoxypyridin-2-yl)acetamide)]: under 100 nM; for `O=C(Cc1cccc(N2CC(F)C2)c1)Nc1nnc([C@H]2CCC[C@H](c3nnc(NC(=O)Cc4cccc(N5CC(F)C5)c4)s3)C2)s1` [Compound 348]: under 100 nM.
`O=C(Cc1cccc(N2CC(F)(F)C2)n1)Nc1nnc([C@H]2CCC[C@H](c3nnc(NC(=O)CC4CC4)s3)C2)s1` [Compound 349, 2-cyclopropyl-N-(5-((1S,3S)-3-(5-(2-(6-(3,3-difluoroazetidin-1-yl)pyridin-2-yl)acetamido)-1,3,4-thiadiazol-2-yl)cyclohexyl)-1,3,4-thiadiazol-2-yl)acetamide] came in with a 50% inhibitory concentration (IC50) of under 100 nM.
The result for `O=C(Cc1cccc(CO)c1)Nc1nnc([C@H]2CCC[C@H](c3nnc(NC(=O)Cc4cccc(CO)c4)s3)C2)s1` [Compound 351] reads under 100 nM; that for `COCCOc1ccnc(CC(=O)Nc2nnc([C@H]3CCC[C@H](c4nnc(NC(=O)Cc5cc(OCCOC)ccn5)s4)C3)s2)c1` [Compound 353], under 100 nM; that for `O=C(Cc1cncc(N2CC(F)(F)C2)n1)Nc1nnc([C@H]2CCC[C@H](c3nnc(NC(=O)Cc4cncc(N5CC(F)(F)C5)n4)s3)C2)s1` [Compound 354], under 100 nM.
As for `N#Cc1cccc(CC(=O)Nc2nnc([C@H]3CCC[C@H](c4nnc(NC(=O)Cc5cccc(C6CCNCC6)c5)s4)C3)s2)c1` [Compound 355], the 50% inhibitory concentration (IC50) is under 100 nM.
The result for `O=C(Cc1cc(OC(F)F)ccn1)Nc1nnc([C@H]2CCC[C@H](c3nnc(NC(=O)Cc4cc(OC(F)F)ccn4)s3)C2)s1` [Compound 356, N,N′-(5,5′-((1S,3S)-cyclohexane-1,3-diyl)bis(1,3,4-thiadiazole-5,2-diyl))bis(2-(4-(difluoromethoxy)pyridin-2-yl)acetamide)] reads under 100 nM.
`O=C(Cc1ccc(N2CC(F)C2)cn1)Nc1nnc([C@H]2CCC[C@H](c3nnc(NC(=O)Cc4ccc(N5CC(F)C5)cn4)s3)C2)s1` [Compound 357]: the IC50 was under 100 nM.
Turning to `COc1ccc(CC(=O)Nc2nnc([C@H]3CC[C@H](c4nnc(NC(=O)Cc5cccc(N6CC(F)(F)C6)n5)s4)C3)s2)cn1` [Compound 358], the half-maximal inhibitory concentration (IC50) was under 100 nM.
The same measure for `COc1ccc(CC(=O)Nc2nnc([C@H]3CCC[C@H](c4nnc(NC(=O)Cc5cccc(N6CC(F)(F)C6)n5)s4)C3)s2)cn1` [Compound 359]: under 100 nM; for `N#Cc1cccc(CC(=O)Nc2nnc([C@H]3CCC[C@H](c4nnc(NC(=O)Cc5cccc(CN)c5)s4)C3)s2)c1` [Compound 361]: under 100 nM.
The result for `CN1CCC(c2cccc(CC(=O)Nc3nnc([C@H]4CCC[C@H](c5nnc(NC(=O)Cc6cccc(C7CCN(C)CC7)c6)s5)C4)s3)c2)CC1` [Compound 362, N,N′-(5,5′-((1S,3S)-cyclohexane-1,3-diyl)bis(1,3,4-thiadiazole-5,2-diyl))bis(2-(3-(1-methylpiperidin-4-yl)phenyl)acetamide)] reads under 100 nM.
On to `O=C(Cc1ccc(N2CC(F)C2)cn1)Nc1nnc([C@H]2CC[C@H](c3nnc(NC(=O)Cc4ccc(N5CC(F)C5)cn4)s3)C2)s1` [Compound 363], for which the IC50 was under 100 nM.
The result for `O=C(Cc1cccc(OC(F)(F)F)c1)Nc1nnc([C@H]2CCC[C@H](c3nnc(NC(=O)Cc4ccccn4)s3)C2)s1` [Compound 364, 2-(pyridin-2-yl)-N-(5-((1S,3S)-3-(5-(2-(3-(trifluoromethoxy)phenyl)acetamido)-1,3,4-thiadiazol-2-yl)cyclohexyl)-1,3,4-thiadiazol-2-yl)acetamide] reads under 100 nM.
